Laboratory results published in US7214694B2, “3-ox(adi)azolylpropanohydroxamic acids useful as procollagen C-proteinase inhibitors” (Pfizer Inc, priority 2001, dated 2007).

Tested on: not given
Assay: not given
Settings: not given

Row | SMILES | melting point
1 | CCNCc1noc([C@H](CCCC2CCCCC2)CC(=O)NO)n1 [Example 32, (3R)-6-cyclohexyl-3-{3-[(ethylamino)methyl]-1,2,4-oxadiazol-5-yl}-N-hydroxyhexanamide] | 69.4 to 71.4 °C
2 | CCCNCc1noc([C@H](CCCC2CCCCC2)CC(=O)NO)n1 [Example 33, (3R)-6-cyclohexyl-N-hydroxy-3-{3-[(propylamino)methyl]-1,2,4-oxadiazol-5-yl}hexanamide] | 90.4 to 91.8 °C
3 | CC(C)CNCc1noc([C@H](CCCC2CCCCC2)CC(=O)NO)n1 [Example 35, (3R)-6-cyclohexyl-N-hydroxy-3-{3-[(isobutylamino)methyl]-1,2,4-oxadiazol-5-yl}hexanamide] | 97.8 to 99 °C
4 | CCC(CC)NCc1noc([C@H](CCCC2CCCCC2)CC(=O)NO)n1 [Example 37, (3R)-6-cyclohexyl-3-(3-{[(1-ethylpropyl)amino]methyl}-1,2,4-oxadiazol-5-yl)-N-hydroxyhexanamide] | 102.7 to 104.3 °C
5 | O=C(C[C@@H](CCCC1CCCCC1)c1nc(CNC2CCC2)no1)NO [Example 39, (3R)-3-{3-[(cyclobutylamino)methyl]-1,2,4-oxadiazol-5-yl}-6-cyclohexyl-N-hydroxyhexanamide] | 82 to 83.9 °C
6 | O=C(C[C@@H](CCCC1CCCCC1)c1nc(CNC2CCCCC2)no1)NO [Example 41, (3R)-6-cyclohexyl-3-{3-[(cyclohexylamino)methyl]-1,2,4-oxadiazol-5-yl}-N-hydroxyhexanamide] | 127 °C
7 | COCCCNCc1noc([C@H](CCCC2CCCCC2)CC(=O)NO)n1 [Example 45, (3R)-6-cyclohexyl-N-hydroxy-3-(3-{[(3-methoxypropyl)amino]methyl}-1,2,4-oxadiazol-5-yl)hexanamide] | 60 °C
8 | O=C(C[C@@H](CCCC1CCCCC1)c1nc(CNC2CCOCC2)no1)NO [Example 50, (3R)-6-cyclohexyl-N-hydroxy-3-{3-[(tetrahydro-2H-pyran-4-ylamino)methyl]-1,2,4-oxadiazol-5-yl}hexanamide] | 108.9 to 110.3 °C
9 | O=C(C[C@@H](CCCC1CCCCC1)c1nc(CN2CCC(O)CC2)no1)NO [Example 64, (3R)-6-cyclohexyl-N-hydroxy-3-{3-[(4-hydroxy-1-piperidinyl)methyl]-1,2,4-oxadiazol-5-yl}hexanamide] | 85 °C
10 | O=C(C[C@@H](CCCC1CCCCC1)c1nc(CN2CCOCC2)no1)NO [Example 65, (3R)-6-cyclohexyl-N-hydroxy-3-[3-(4-morpholinylmethyl)-1,2,4-oxadiazol-5-yl]hexanamide] | 138 to 139 °C
11 | O=C(C[C@@H](CCCC1CCCCC1)c1nc(CNC2CCCC2)co1)NO [Example 69, (3R)-6-cyclohexyl-3-{4-[(cyclopentylamino)methyl]-1,3-oxazol-2-yl}-N-hydroxyhexanamide] | 124 to 127 °C
12 | O=C(C[C@@H](CCCC1CCCCC1)c1nc(CN2CCOCC2)co1)NO [Example 70, (3R)-6-cyclohexyl-N-hydroxy-3-[4-(4-morpholinylmethyl)-1,3-oxazol-2-yl]hexanamide] | 117 to 119 °C
13 | Cc1oc([C@H](CCCC2CCCCC2)CC(=O)NO)nc1CNC1CCOCC1 [Example 71, (3R)-6-cyclohexyl-N-hydroxy-3-{5-methyl-4-[(tetrahydro-2H-pyran-4-ylamino)methyl]-1,3-oxazol-2-yl}hexanamide] | 108 to 110 °C

Target: T1, human PCP (Homo sapiens, UniProt P13497)
T1 construct: made in house; host or cells: CHO cells (stably transfected), purified from the supernatant
T1 sequence (P13497 121-986): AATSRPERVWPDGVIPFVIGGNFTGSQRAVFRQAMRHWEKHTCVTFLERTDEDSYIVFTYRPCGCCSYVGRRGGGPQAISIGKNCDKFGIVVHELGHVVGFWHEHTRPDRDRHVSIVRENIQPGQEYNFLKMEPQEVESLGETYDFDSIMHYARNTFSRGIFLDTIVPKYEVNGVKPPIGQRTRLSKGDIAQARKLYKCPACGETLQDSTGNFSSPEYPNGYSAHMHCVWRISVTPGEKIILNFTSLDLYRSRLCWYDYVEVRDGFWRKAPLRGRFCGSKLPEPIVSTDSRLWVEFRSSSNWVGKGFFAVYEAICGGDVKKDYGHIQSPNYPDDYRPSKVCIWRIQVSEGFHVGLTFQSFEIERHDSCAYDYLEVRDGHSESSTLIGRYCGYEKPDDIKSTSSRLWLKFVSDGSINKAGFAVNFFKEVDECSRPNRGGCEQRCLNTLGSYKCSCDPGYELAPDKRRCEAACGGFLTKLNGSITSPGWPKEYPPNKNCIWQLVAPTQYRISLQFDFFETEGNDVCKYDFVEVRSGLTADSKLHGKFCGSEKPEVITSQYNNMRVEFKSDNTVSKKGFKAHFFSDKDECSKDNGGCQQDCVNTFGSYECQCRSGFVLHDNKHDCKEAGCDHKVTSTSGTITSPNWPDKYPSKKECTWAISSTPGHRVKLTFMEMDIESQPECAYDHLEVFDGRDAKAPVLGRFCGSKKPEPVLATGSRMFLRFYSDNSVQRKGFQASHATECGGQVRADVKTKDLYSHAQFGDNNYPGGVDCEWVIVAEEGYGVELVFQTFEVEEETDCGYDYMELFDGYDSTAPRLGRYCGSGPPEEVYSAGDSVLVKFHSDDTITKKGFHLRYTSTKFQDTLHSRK
Assay: fluorogenic PCP cleavage assay (PCP inhibition)
Assay type: biochemical
Settings: fluorogenic substrate 3×10^−6 M, pH 7.6, 37° C.
Protocol: In order to determine potency of PCP inhibitors a fluorogenic PCP cleavage assay was used. This assay is based on the template of Beekman et al. (FEBS Letters (1996), 390: 221–225) using a fluorogenic substrate. The substrate (Dabcyl-Arg-Tyr-Tyr-Arg-Ala-Asp-Asp-Ala-Asn-Val-Glu(EDANS)-NH2) contains the cleavage site of human PCP (Hojima et al., J Biol Chem (1985), 260:15996–16003). […]. The assay was performed in 96-well black fluorimeter plates and fluorescence was read continuously in a fluorimeter over 2.5 hours (λex=340 nm, λem=485 nm) at a constant 37° C. with shaking. Release of the fluorogenic signal was in linear correlation to PCP activity. Reading of the mean velocity from 30 min after start of experiment until 2.5 hours was calculated by the Biolise software. IC50 values were calculated by plotting % inhibition values against compound concentration using Tessela add in for Excel spreadsheet.

Row | SMILES | IC50
14 | O=C(C[C@@H](CCCC1CCCCC1)c1nc(CNS(=O)(=O)c2ccccn2)no1)NO [Example 6, (3 R)-6-cyclohexyl-N-hydroxy-3-(3-[(2-pyridinylsulfonyl)amino]methyl-1,2,4-oxadiazol-5-yl)hexanamide] | 107 nM
15 | CC(C)(C)NS(=O)(=O)NCc1noc([C@H](CCCC2CCCCC2)CC(=O)NO)n1 [Example 17, (3 R)-3-[3-({[(tert-butylamino)sulfonyl]amino}methyl)-1,2,4-oxadiazol-5-yl]-6-cyclohexyl-N-hydroxyhexanamide] | 98 nM
16 | Cc1oc([C@H](CCCC2CCCCC2)CC(=O)NO)nc1CN1CCOCC1 [Example 72, (3R)-6-cyclohexyl-N-hydroxy-3-[5-methyl-4-(4-morpholinylmethyl)-1,3-oxazol-2-yl]hexanamide] | 37 nM

Tested on: PCP
Assay: not given
Settings: 0.2M NaCl; cited from earlier work

Row | SMILES | activity of PCP, of that observed with the standard assay concentration of 0.15M
17 | [Cl-].[Na+] [NaCl] | 66%

Same assay, conditions: 0.3M NaCl; cited from earlier work

Row | SMILES | activity of PCP, of that observed with the standard assay concentration of 0.15M
18 | [Cl-].[Na+] [NaCl] | 38%

Same assay, conditions: 0.5M NaCl; cited from earlier work

Row | SMILES | activity of PCP, of that observed with the standard assay concentration of 0.15M
19 | [Cl-].[Na+] [NaCl] | 25%
